Measurements published in ChEMBL document CHEMBL1201862, “PubChem BioAssay data set” (2004).
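Method: 48-hour compound exposure of cells in 96-well plates, five concentrations, linear interpolation of endpoints. GI50 is the concentration that inhibits growth by half.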 The source made the active and inactive calls. Rule as the data show it: active = GI50 up to about 1.1 µM and inactive = higher.

Key:
Test in all cases: NCI anticancer screen, dose series, 48 h
[1] = test system: OVCAR-8
[2] = test system: ACHN
[3] = test system: K562
[4] = test system: HOP-62
[5] = test system: SK-MEL-5
[6] = test system: OVCAR-5
[7] = test system: TK-10
[8] = test system: NCI-H522
[9] = test system: SK-OV-3
[10] = test system: MOLT-4
[11] = test system: LOX IMVI
[12] = test system: SN12C
[13] = test system: NCI-H23
[14] = test system: SK-MEL-2
[15] = test system: EKVX
[16] = test system: UACC-62
[17] = test system: UACC-257
[18] = test system: OVCAR-4
[19] = test system: HCT-15

Row | Compound | GI50 [1] | GI50 [2] | GI50 [3] | GI50 [4] | GI50 [5] | GI50 [6] | GI50 [7] | GI50 [8] | GI50 [9] | GI50 [10] | GI50 [11] | GI50 [12] | GI50 [13] | GI50 [14] | GI50 [15] | GI50 [16] | GI50 [17] | GI50 [18] | GI50 [19] [µM]
1 | CC1=C(/C=C/C(C)=C/C2CC(N(C)C)=CC(=O)O2)C(C)(C)CCC1 (configuration not stated) | 15.5 µM (inactive) | 12.1 µM (inactive) | 3.56 µM (inactive) | 16.9 µM (inactive) | 5.45 µM (inactive) | 11.6 µM (inactive) | 14.1 µM (inactive) | > 10 µM (inactive) | 16.4 µM (inactive) | 3.2 µM (inactive) | 15.2 µM (inactive) | 15.5 µM (inactive) | 13.5 µM (inactive) | 13.2 µM (inactive) | 14.4 µM (inactive) | 13.6 µM (inactive) | 11.9 µM (inactive) | 16 µM (inactive) | 
2 | Nc1nc(-c2ccc(Cl)c([N+](=O)[O-])c2)cs1 | > 100 µM (inactive) | > 100 µM (inactive) | > 100 µM (inactive) | > 100 µM (inactive) | > 100 µM (inactive) | > 100 µM (inactive) | > 100 µM (inactive) |  | > 100 µM (inactive) | 97.3 µM (inactive) | > 100 µM (inactive) | > 100 µM (inactive) | 73.5 µM (inactive) | > 100 µM (inactive) | 94.8 µM (inactive) | > 100 µM (inactive) | > 100 µM (inactive) | > 100 µM (inactive) | > 100
3 | Cc1ccc(N2CCc3c(C)c(C#N)c4nc5ccccc5n4c32)cc1 | 49.3 µM (inactive) | > 100 µM (inactive) |  | 36.6 µM (inactive) | > 100 µM (inactive) | > 100 µM (inactive) | > 100 µM (inactive) | 9.04 µM (inactive) | 59.3 µM (inactive) |  | > 100 µM (inactive) | > 100 µM (inactive) | > 100 µM (inactive) | 23.8 µM (inactive) |  | 27 µM (inactive) | > 100 µM (inactive) | > 100 µM (inactive) | > 100
4 | COc1ccccc1NC(=O)C1=C(C)NC(C)=C(C(=O)Nc2ccccc2OC)C1c1cccc2c1OCO2 | > 100 µM (inactive) | 58.9 µM (inactive) | 51.1 µM (inactive) | > 100 µM (inactive) | 46 µM (inactive) | > 100 µM (inactive) | > 100 µM (inactive) |  | > 100 µM (inactive) | 20.7 µM (inactive) | > 100 µM (inactive) | > 100 µM (inactive) | > 100 µM (inactive) | 48.2 µM (inactive) | > 100 µM (inactive) | > 100 µM (inactive) | > 100 µM (inactive) | > 100 µM (inactive) | > 100
5 | CC[C@@H]1CC[C@@H]2[C@H](CC[C@]3(C)[C@@H](OS(=O)(=O)c4ccc(C)cc4)CC[C@@H]23)[C@H]1COS(=O)(=O)c1ccc(C)cc1 | > 100 µM (inactive) | > 100 µM (inactive) | > 100 µM (inactive) |  | > 100 µM (inactive) |  | > 100 µM (inactive) |  |  | > 100 µM (inactive) | > 100 µM (inactive) | > 100 µM (inactive) |  |  | > 100 µM (inactive) |  | > 100 µM (inactive) | > 100 µM (inactive) | > 100
6 | COC(=O)C(CCC1(C)OCCO1)=[N+]=[N-] | > 100 µM (inactive) | > 100 µM (inactive) | > 100 µM (inactive) | > 100 µM (inactive) | > 100 µM (inactive) | > 100 µM (inactive) | > 100 µM (inactive) | > 100 µM (inactive) | > 100 µM (inactive) | > 100 µM (inactive) | > 100 µM (inactive) | > 100 µM (inactive) | > 100 µM (inactive) | > 100 µM (inactive) | > 100 µM (inactive) |  | > 100 µM (inactive) | > 100 µM (inactive) | > 100
7 | CCOC(=O)N(c1ccccc1)N(CC)C(=O)/C(C)=N/Nc1ccc([N+](=O)[O-])cc1 | 17.4 µM (inactive) | 17.7 µM (inactive) | 14.7 µM (inactive) | 16.1 µM (inactive) |  |  |  | 15.3 µM (inactive) | 19.8 µM (inactive) | 17.7 µM (inactive) |  | 17.3 µM (inactive) | 18 µM (inactive) | 16 µM (inactive) | 18.6 µM (inactive) | 13.6 µM (inactive) | 15 µM (inactive) | 19.7 µM (inactive) | 16
8 | Cn1c(=O)cc(NNc2ccc(Br)cc2)[nH]c1=O | 19.1 µM (inactive) | 14 µM (inactive) | 1.17 µM (inactive) | 12.8 µM (inactive) | 16.6 µM (inactive) | 13.4 µM (inactive) | 20.3 µM (inactive) |  |  | 0.558 µM (active) | 2.11 µM (inactive) | 10.7 µM (inactive) |  |  | 16.5 µM (inactive) |  | 15.3 µM (inactive) | 16 µM (inactive) | 6.71
9 | COc1cc([C@@H]2c3cc4c(c(O)c3C[C@H]3COC(=O)[C@@H]32)OCO4)cc(OC)c1O | 0.0249 µM (active) | 0.00631 µM (active) | 0.0243 µM (active) | < 0.02 µM (active) | < 0.02 µM (active) | 29.2 µM (inactive) | 0.00762 µM (active) |  |  |  |  | 0.033 µM (active) | 0.0853 µM (active) | 0.027 µM (active) | 0.0351 µM (active) | < 0.02 µM (active) | < 0.02 µM (active) |  | 
